Source: patent publication US9745288B2, “Compounds and methods for treating cancer by inhibiting the urokinase receptor” (Indiana University Research and Technology Corporation, priority 2011, dated 2017)

Columns and labels:
uPAR = target: T1, uPAR (Homo sapiens, UniProt Q03405); experiment: Fluorescence polarization assay, displacement of AE147-FAM peptide from uPAR; assay type: binding; conditions: Table 1, assay not stated; for Ki: read-out: Ki
T1 construct: human uPAR (suPAR, amino acids 1-283) was expressed in stably transfected Drosophila S2 cells; made in house; host or cells: Drosophila S2 cells
T1 sequence (Q03405 23-305): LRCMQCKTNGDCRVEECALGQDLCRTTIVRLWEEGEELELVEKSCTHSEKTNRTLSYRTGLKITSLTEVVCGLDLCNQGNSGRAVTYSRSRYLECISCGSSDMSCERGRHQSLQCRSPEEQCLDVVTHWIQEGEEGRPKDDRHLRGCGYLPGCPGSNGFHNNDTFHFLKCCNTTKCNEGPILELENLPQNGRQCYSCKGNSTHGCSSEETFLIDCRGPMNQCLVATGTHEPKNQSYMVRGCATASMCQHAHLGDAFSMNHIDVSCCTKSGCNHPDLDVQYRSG
Protocol: Fluorescence Polarization Assay. The fluorescence polarization assay used fluorescent AE147-FAM peptide. uPAR was titrated against the fluorescent AE147-FAM peptide and data were fit to a sigmoidal dose-dependent curve as the FP value increases to determine the Kd of binding using Sigmaplot (Systat Software Inc., CA). Inhibitor screens were carried out in triplicates using 500 nM uPAR, 100 nM AE147-FAM, and inhibitor concentrations ranging from 0.78 μM to 100 μM in 50 μL volumes in black BD Falcon 384-well microplate. […] Polarized fluorescence intensities were measured immediately following addition of inhibitors to the protein-peptide mix at room temperature on an EnVision® Multilabel Plate Readers (PerkinElmer) with excitation and emission wavelengths of 485 nm and 530 nm, respectively.
Cloning, Expression and Purification of uPAR. uPAR was successfully cloned, expressed and purified. From 1 L of culture, nearly 12 mg of protein was expressed, which will be sufficient to conduct the experiments disclosed herein. Briefly, a truncated, soluble form of human uPAR (suPAR, amino acids 1-283) was expressed in stably transfected Drosophila S2 cells using the Drosophila Expression System (Invitrogen). suPAR was obtained by a two-step purification process. The conditioned culture medium was filtered (0.45 μm) and loaded onto a DEAE Sephadex column equilibrated with 20 mM Tris (pH 7.4). The protein was eluted with a gradient of 0-1 M NaCl in 20 mM Tris (pH 7.4). suPAR containing fractions were then pooled, concentrated, and filtered prior to RP-HPLC using a semi-preparative (10×25 cm) C8 column. A 1 mL aliquot of the concentrated protein was loaded onto the column at initial gradient conditions of 95% eluent A and 5% eluent B, where eluent A was 0.1% TFA/100% H2O and eluent B was 70:30 acetonitrile/[…]. The protein elutes using a gradient of 5% eluent A to 95% eluent B over 46 minutes at a flow rate of 4 mL/min. Under these conditions, the protein eluted as a single sharp peak (tR=29 min). […] Surface plasmon resonance confirmed that the purified uPAR was capable of binding to uPA. The identity of the 60 kDa band was established by immunoblot (not shown).
The design of a fluorescent probe was guided by the three-dimensional structure of uPAR in complex with peptide AE147.^27 As this peptide binds at the same site that is occupied by the growth factor-like domain of uPA, it provides the basis for the development of a competition assay to assess binding to this site. Flurescein was introduced to the N-terminus of AE147.
All 210 compounds were screened at initial concentration of 50 μM for displacement of AE147-FAM peptide. Eleven compounds gave polarization readings that were five times that of the standard deviation of the control peptide (FIG. 1B). Secondary concentration-dependent study for these eleven compounds was performed.
The resulting inhibition curves were used to determine an inhibition constant, Ki, for each.

MMP-9 = experiment: Gelatin zymography of MDA-MB-231 conditioned medium; assay type: cell-based, human
Protocol: Gelatin Zymography. MDA-MB-231 cells were treated with different concentrations of uPAR compounds in serum free medium for 24 h, the conditioned medium were collected, concentrated by Amicon Ultra centrifugal filter units (Millipore, #UFC500324), proteins were normalized and electrophoresed on sodium dodecyl sulfate (SDS)-polyacrylamide gels (10%) containing 1 mg/mL gelatin. After electrophoresis, the gel was washed twice in 50 mM Tris-HCl (pH 7.6) containing 5 mM CaCl2 and 2.5% Triton X-100 for 30 minutes at room temperature and incubated in buffer that contained 50 mM Tris-HCl (pH 7.6), 200 mM NaCl, 10 mM CaCl2 at 37° C. for 36 h. Then, the gels were stained with 0.05% Coomassie brilliant blue (CBB) and destained with 30% methanol in 10% acetic acid. Areas of gelatinolytic degradation appeared as transparent bands on the blue stained background of the gel. Data were quantified using Image J.
To degrade collagen within the ECM, malignant cells unleash a series of extracelullar proteases known as matrix metalloproteinases (MMPs).

MDA-MB-231 cells [1] = experiment: Adhesion assay on fibronectin-coated wells; assay type: cell-based, human; conditions: MDA-MB-231
Protocol: Adhesion Assay. Quantitative cell adhesion assays were carried out in nontissue culture treated 96-well microtiter plates (Evergreen Scientific, Los Angeles, Calif.) which were coated with 15 μg/mL fibronectin (Sigma) for 1 h at room temperature. Fibronectin coated and uncoated control wells were blocked for 1 h with 3% heat denatured bovine serum albumin (BSA) at 37° C. Cells were split one day prior to the experiment to achieve a subconfluent culture. […] The wells were washed and the number of adherent cells was quantified by crystal violet staining at 570 nm.^19,20 The results were shown by means±SE.

MDA-MB-231 cells [2] = experiment: Invasion assay (Boyden chamber, Matrigel); assay type: cell-based, human
Protocol: Invasion and Migration Assays. These assays were performed using BD BioCoat Matrigel Invasion Chamber (Cat. 354480, BD Biosciences, Bedford, Mass.). The undersurface of the inserts was coated with 30 μg/mL of fibronectin (Sigma, F2006) in PBS at 4° C. overnight. The inserts were washed with PBS once. Then, 0.5 mL of serum-free medium was separately added to the upper and lower chambers to equilibrate the Matrigel invasion chambers at 37° C., 5% CO2 for 2 hours. After starvated with serumfree DMEM or 4 hours, subconfluent MDA-MB-231 cells were trypsinized and resuspended in 0.1% FBS DMEM. 5×10^4 cells in 500 μL of 0.1% FBS DMEM containing various compounds or 1.0% DMSO (as control) were added to the upper chambers. 500 μL of 10% FBS DMEM containing the same concentration of the same compound or DMSO were added to the lower chambers. We incubated the invasion chambers for 3 hours at 37° C., 5% CO2. Non-invaded cells were removed from the upper chamber with a cotton swab. The invaded cells were fixed with 100% methanol and then stained with Hematoxylin Stain Harris Modified Method (Fisher, SH30-500D). The filters were washed with water 3 times. Filters were air dried and the invaded cells were counted in ten randomly selected microscopic fields (×200 magnification). The experiment was performed in triplicate per group and shown by mean±SE.
Whether the two active compounds affected invasion, adhesion and migration in cell culture in a concentration-dependent study was tested (FIGS. 2A, 2B). For invasion, the Transwell (or Boyden) chamber assay was used.^28 The assay uses a chamber with two compartments that are separated by a microporous membrane known as Matrigel consisting of components of the ECM such as collagen, laminin and fibronectin.^28
Invasive tumor cells degrade the Matrigel and migrate through the membrane to the lower compartment. […] FIGS. 2A and 2B show the effect of representative presently disclosed compounds on MDA-MB-231 metastasis. Percent inhibition of invasion, migration, and adhesion of MDA-MB-231 by compounds that bind to uPAR.

[3] = tested on: different signaling molecules; experiment: Western blot analysis of signaling; assay type: cell-based; conditions: n=1
Protocol: In light of the previously reported role of uPAR in signaling, the effect of IPR-993, IPR-737, IPR-81 and IPR-69 on signaling was studied by Western blot analysis (FIG. 23). A concentration-dependent study was carried out for IPR-737.

PANC-1 cells [4] = experiment: PANC-1 invasion assay; assay type: cell-based, human
PANC-1 cells [5] = experiment: MTT assay; assay type: cell-based, human
Protocol: (§1) Proliferation Assay. The procedure consisted of culturing cells at 37° C. in 10% FBS-DMEM medium containing various amounts of compound. 5 mM compound stock in 100% DMSO was 1:50 diluted in medium, filtered, and serially diluted in 96-well plate. Then seeded cells were incubated for 3 days. Viable cells were quantified by MTT assay at absorbance of 570 and 630 nm.
Some of the compounds of the presently disclosed subject matter were tested in a MTT assay using a human pancreas carcinoma cell line PANC-1 (FIG. 12A). […] One of these compounds, IPR-737, was further tested in a MTT assay using MDA-MB-231, AsPC-1 (human pancreas adenocarcinoma cell line), and PANC-1 cells.

MDA-MB-231 cells [6] = experiment: MTT proliferation assay; assay type: cell-based, human; conditions: MDA-MB-231
Protocol: as §1
FIGS. 4A-4D show inhibition of MDA-MB-231 proliferation and mechanism of cell killing. To gain insight into the mechanism by which these compounds are inhibiting growth, a flow cytometry analysis with annexin V-FITC and PI staining was performed. The level of apoptotic cells in MDA-MB-231 was assessed by the percentage of Annexin V-positive/PI-negative cells present after exposure of MDAMB-231 cells to increasing concentration of IPR-69 for 24 h (FIG. 4B). At a concentration of 50 μM, IPR-69 induced significant apoptosis as evidenced by a 51% and 21% increase in apoptotic cells (Annexin V positive/PI-negative) and necrotic cells (Annexin V-positive/PI-positive), respectively. […] At a concentration of 50 μM, 26% of cells were necrotic (Annexin V positive/PI-positive), a 22% increase over control. 46% of cells were apoptotic (Annexin V positive/PInegative), compared with 4% of control.

CYP2C9 = CYP2C9 (Homo sapiens, UniProt P11712); experiment: Fluorescence-based CYP2C9 inhibition assay; conditions: 5 μM
CYP2C9, sequence (P11712 whole entry): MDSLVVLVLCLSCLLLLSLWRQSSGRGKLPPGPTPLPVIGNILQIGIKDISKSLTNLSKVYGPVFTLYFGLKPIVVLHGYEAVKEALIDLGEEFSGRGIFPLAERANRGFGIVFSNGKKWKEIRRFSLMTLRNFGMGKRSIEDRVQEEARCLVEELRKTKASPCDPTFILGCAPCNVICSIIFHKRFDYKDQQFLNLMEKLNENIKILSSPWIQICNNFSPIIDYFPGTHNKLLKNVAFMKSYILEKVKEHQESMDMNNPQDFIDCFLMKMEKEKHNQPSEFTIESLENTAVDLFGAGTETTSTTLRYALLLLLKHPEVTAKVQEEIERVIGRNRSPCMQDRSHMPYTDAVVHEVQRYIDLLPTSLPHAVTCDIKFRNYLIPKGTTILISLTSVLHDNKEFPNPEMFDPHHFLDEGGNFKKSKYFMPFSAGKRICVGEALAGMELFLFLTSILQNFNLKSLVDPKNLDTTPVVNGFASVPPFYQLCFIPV
Protocol: CYP metabolism was measured using a fluorescence-based assay designed by Cohen et al.,^41 recently implemented by Invitrogen (Carlsbad, Calif.).

## c1ccc(CNCCC(Cc2ccccc2)c2ccc3c(c2)OCO3)cc1 (stereo not drawn) [IPR-021]
uPAR
  IC50: 58.7 µM
  Ki: 17.9 µM

## COc1ccccc1C(CCNCc1ccccc1)c1ccc2c(c1)OCO2 (stereo not drawn) [IPR-022]
uPAR
  IC50: 24.2 µM
  Ki: 7.3 µM

## COc1ccc(N2C(=O)CCC(C(=O)Nc3ccc(OC)c(Cl)c3)C2c2ccc(OC)c(OC)c2)cc1 (stereo not drawn) [IPR-108]
uPAR
  IC50: 42 µM
  Ki: 12.8 µM

## CCCCCCOc1cccc(N2C(=O)C(O)=C(C(=O)c3ccccc3)C2c2ccc(CC)cc2)c1 (stereo not drawn) [IPR-993]
MMP-9
  MMP-9 activity in gelatin zymography: did not appear to demonstrate impairment of MMP-9 activity
MDA-MB-231 cells [1]
  cell adhesion: some activity
MDA-MB-231 cells [2]
  cell invasion: inhibition of activity with increasing concentrations of compound
[3]
  effect on signaling molecules: did not seem to be much of an effect
PANC-1 cells [4]
  cell viability in the PANC-1 invasion assay: little decrease in cell viability
PANC-1 cells [4]; increasing concentrations
  PANC-1 invasion: inhibition of activity with increasing concentrations of compound
PANC-1 cells [5]
  cell proliferation / viability (MTT, words): inhibited cell viability
MDA-MB-231 cells [6]
  cell proliferation / viability (MTT, words): inhibited cell viability

## Nc1ccc(S(=O)(=O)Nc2ccnn2-c2ccccc2)cc1 [sulphaphenazole, reference compound]
CYP2C9
  inhibition of CYP2C9: approximately 69%
